Patent publication US20150284393A1, “METHODS FOR TREATING EYE DISORDERS” (PRISM PHARMA CO., LTD, priority 2012, published 2015)

Experiments:
[1] = tested on: rat model of laser-induced choroidal neovascularization; test: rat model of laser-induced choroidal neovascularization (CNV); format: in vivo, Brown Norway rats; details: for average CNV lesion size vs vehicle controls: bilateral intravitreal on Days 3 and 10; for anti-angiogenic or vascular disruption activity: rat model of CNV, intravitreal
Text: The objective of this study was to assess the anti-angiogenic/vascular disrupting effects of Compound A, an alpha helix mimetic β-catenin inhibitor compound, and Compound C, the active metabolite of Compound A, in a rat model of laser-induced choroidal neovascularization. Compound A is 4-(((6S,9S,9aS)-1-(benzylcarbamoyl)-2,9-dimethyl-4,7-dioxo-8-(quinolin-8-ylmethyl)octahydro-1H-pyrazino[2,1-c][1,2,4]triazin-6-yl)methyl)phenyl dihydrogen phosphate. Compound C is (6S,9S,9aS)-N-benzyl-6-(4-hydroxybenzyl)-2,9-dimethyl-4,7-dioxo-8-(quinolin-8-ylmethyl)octahydro-1H-pyrazino[2,1-c][1,2,4]triazine-1-carboxamide.
For compound A, an 80 mg/ml solution of 4-(((6S,9S,9aS)-1-(benzylcarbamoyl)-2,9-dimethyl-4,7-dioxo-8-(quinolin-8-ylmethyl)octahydro-1H-pyrazino[2,1-c][1,2,4]triazin-6-yl)methyl)phenyl dihydrogen phosphate was prepared in sterile PBS. This solution was further diluted 1:4 to make a 20 mg/ml solution. The 20 mg/ml solution was diluted 1:4 to make a 5 mg/ml solution.
For compound C, a solution containing 0.5% NaCMC and 0.5% Polysorbate 80 (Tween 80) was prepared in USP grade water. 20 mg of (6S,9S,9aS)-N-benzyl-6-(4-hydroxybenzyl)-2,9-dimethyl-4,7-dioxo-8-(quinolin-8-ylmethyl)octahydro-1H-pyrazino[2,1-c][1,2,4]triazine-1-carboxamide was dissolved in 1 ml (using displacement pipette) of USP grade PEG400 in a glass vial. Slight heating and sonication/vortexing were performed if necessary. The glass vial containing the 20 mg/ml compound C solution was placed on a magnetic stir plate and an equal volume (1 ml) of the CMC/Tween 80 solution was added to the compound C/PEG400 solution (slowly in drop-wise fashion during continuous mixing with a stir bar). The resultant formulation was a clear solution containing 10 mg/ml compound C, 50% PEG400, 0.25% NaCMC, and 0.25% Tween 80.
Laser application to produce CNV lesions. Animals were dilated with 1% Cyclogyl solution and protected from light. Following observable dilation, the animals were sedated with ketamine/xylazine. The fundus of sedated animals was observed and recorded using a Micron III small animal funduscope (Phoenix Research). Laser treatments were performed using a thermal laser which is connected through the Micron III custom laser attachment. A total of 3 lesions per eye were placed using a wavelength of 520 nm.
Fundus images were recorded to confirm that the laser had successfully produced a bubble through the Bruch's membrane. It was expected that 5-10% of all laser spots would not develop any quantifiable CNV.
Intravitreal injections. Animals were anesthetized with ketamine/xylazine and the test compound was then injected in a volume of 5 μl into the vitreous through the pars plana using a Hamilton syringe and a 32 gauge needle. Following injection, the animals received an equal amount of topical antibiotic ointment on both eyes. Any eyes displaying signs of hemorrhage following laser application or intravitreal injection were excluded from analysis.
Fluorescein angiography. Animals were anesthetized with ketamine/xylazine and then received an IP injection of 10% Fluorescein Sodium at 1 μl/gram of body weight. Fundus images were then captured as 8-bitt TIFF files using the Micron III and exciter/barrier filters for a target wavelength of 488 nm. Standard color fundus photos were also captured for each eye.
Imaging and lesion quantification. All TIFF images were quantified using computerized image-analysis software (ImageJ, NIH, USA). Lesions were then individually traced free-hand in order to quantify the area in pixels and the color fundus photos were used as a reference for lesion location. Areas of avascularization in the center of lesions were excluded from area calculations. In the case of a hemorrhage or two lesions overlapping these lesions were excluded from analysis.
Statistical Analyses. Statistical Analyses were performed with Graphpad Prism software (version 5) using one-way analysis of variance (ANOVA) with a Tukey's post-hoc test for significance.
Animals. […]

[2] = tested on: rat model of proliferative vitreoretinopathy (PVR) following retinal detachment; test: rat model of proliferative vitreoretinopathy (PVR) following retinal detachment; format: in vivo, Long Evans rats
Text: The objective of this study was to assess the anti-fibrotic efficacy of Compound A, an alpha helix mimetic β-catenin inhibitor compound, in a rat model of proliferative vitreoretinopathy (PVR) following retinal detachment. Compound A is 4-(((6S,9S,9aS)-1-(benzylcarbamoyl)-2,9-dimethyl-4,7-dioxo-8-(quinolin-8-ylmethyl)octahydro-1H-pyrazino[2,1-c][1,2,4]triazin-6-yl)methyl)phenyl dihydrogen phosphate.
The well defined normal consequences of retinal detachment in this animal model are the hyperproliferation of retinal glial cells (primarily Muller cells), the recruitment of immune cells, and the formation of glial scars. An effective treatment would result in less glial scarring.
Retinal detachments were created by infusing a dilute solution (0.25%) of Healon into the subretinal space of the right eyes in 16 Long Evans rats. Twenty (20) mg/ml of Compound A in 5 microliters were injected intravitreally immediately after the detachment surgery in 8 animals. The other 8 animals received an intravitreal injection of the vehicle as a control. The left eyes served as naive controls. Seven days after detachment, settling of the retina occurs causing folds to form in the retina. All animals were euthanized using CO2, 7 days after retinal detachment.
Following euthanasia, the retinas were fixed in 4% paraformaldehyde for 24 hours. Three retinal regions approximately 3 mm square were sampled from within each detached retina as well as from control retinas. The retinas were embedded in agarose and vibratomed at 100 microns in thickness. Sections were immunolabeled with antibodies to intermediate filament proteins (vimentin) and proliferating cells (phosphohistone H3). A marker for immune cells (isolectin B4) and a nuclear stain (Hoescht) was also used. All 4 probes were added to the same sections (i.e. quadruple labeling).
The sections were imaged using an Olympus FV1000 confocal microscope. Digital images were aquired and used to determine 1) the number and size of subretinal glial scars 2) the number of dividing cells and their cell type e.g. of immune or glial origin 3) whether microglia were “activated” and 4) if macrophages were present.
The data were analyzed using a two-tailed T-test. Mean differences with a P values less than 0.05 were considered significant.
Scar frequency was calculated by dividing the total number of scars noted in each retina by the total area examined. The average scar size/length was calculated by dividing the total scar length in a given retina by the total number of scars counted in that retina.
Immunohistochemistry. Qualitative assessment of animals (4 saline and 4 Compound A treated) were evaluated for glial scarring, cell proliferation, and immune cell infiltrates. Three retinal regions from rats 5-8 (PVR+saline) and 13-16 (PVR+Compound A) were excised from the eye, sectioned, and labeled with antibodies (˜25 sections from each eye were surveyed).

Row | Compound | average CNV lesion size vs vehicle controls ([1]; Day 15, 400 μg, p<0.01, FIG. 4A) | average CNV lesion size vs vehicle controls ([1]; Day 22, 100 μg, p<0.01, FIG. 4B) | anti-angiogenic or vascular disruption activity [1] | CNV lesion size, dose effect ([1]; two higher tested doses (100 μg or 400 μg), 25 μg not significant) | dividing immune cells (immune cell response) following retinal detachment ([2]; 20 mg/ml in 5 microliters intravitreally immediately after detachment, 7 days after detachment, vs vehicle, FIG. 1A) | number of Muller cells/mm ([2]; 20 mg/ml in 5 microliters intravitreally, 7 days after detachment, two-tailed T-test, P<0.05 significant, FIG. 1C) | increase in number of proliferating glial cells following retinal detachment ([2]; 20 mg/ml in 5 microliters intravitreally, 7 days after detachment, vs vehicle, FIG. 1B) | increase in number of proliferating Muller cells following retinal detachment ([2]; 20 mg/ml in 5 microliters intravitreally, 7 days after detachment, vs vehicle, FIG. 1C) | increase in number of proliferating astrocytes following retinal detachment ([2]; 20 mg/ml in 5 microliters intravitreally, 7 days after detachment, vs vehicle, FIG. 1D) | frequency of glial scar formation (total number of scars / total area examined) ([2]; 20 mg/ml in 5 microliters intravitreally, 7 days after detachment, vs vehicle, FIG. 2A) | average scar size/length (total scar length / number of scars) ([2]; 20 mg/ml in 5 microliters intravitreally, 7 days after detachment, vs vehicle, FIG. 2B) | subretinal gliosis (glial scarring), vimentin labeled Muller cell processes extending into the subretinal space, immunohistochemistry ([2]; qualitative assessment, 4 treated animals (rats 13-16) vs 4 saline, FIGS. 3C-3D) | size of the lesions ([1]; 50 μg intravitreal) | average CNV lesion size vs vehicle controls ([1]; Day 15, 50 μg, p<0.05, FIG. 4A)
1 | C[C@H]1[C@H]2N(C(=O)CN(C)N2C(=O)NCc2ccccc2)[C@@H](Cc2ccc(OP(=O)(O)O)cc2)C(=O)N1Cc1cccc2cccnc12 [Compound A, 4-(((6S,9S,9aS)-1-(benzylcarbamoyl)-2,9-dimethyl-4,7-dioxo-8-(quinolin-8-ylmethyl)octahydro-1H-pyrazino[2,1-c][1,2,4]triazin-6-yl)methyl)phenyl dihydrogen phosphate] | statistically significant | demonstrated significance | demonstrated efficacy | demonstrated statistical significance | did not have any effect | significantly affected | largely attenuated | largely attenuated | largely attenuated | significantly reduced | significant reduction | no glial scarring was noted |  | 
2 | C[C@H]1[C@H]2N(C(=O)CN(C)N2C(=O)NCc2ccccc2)[C@@H](Cc2ccc(O)cc2)C(=O)N1Cc1cccc2cccnc12 [Compound C, (6S,9S,9aS)-N-benzyl-6-(4-hydroxybenzyl)-2,9-dimethyl-4,7-dioxo-8-(quinolin-8-ylmethyl)octahydro-1H-pyrazino[2,1-c][1,2,4]triazine-1-carboxamide] |  |  | demonstrated efficacy |  |  |  |  |  |  |  |  |  | significant impact | statistically significant
